Data taken from BindingDB's records for patent US10071110 (University of California, 2018).

Molecular target: T1, Capsid scaffolding protein (Human cytomegalovirus (strain AD169), UniProt P16753)
T1 sequence (P16753 whole entry): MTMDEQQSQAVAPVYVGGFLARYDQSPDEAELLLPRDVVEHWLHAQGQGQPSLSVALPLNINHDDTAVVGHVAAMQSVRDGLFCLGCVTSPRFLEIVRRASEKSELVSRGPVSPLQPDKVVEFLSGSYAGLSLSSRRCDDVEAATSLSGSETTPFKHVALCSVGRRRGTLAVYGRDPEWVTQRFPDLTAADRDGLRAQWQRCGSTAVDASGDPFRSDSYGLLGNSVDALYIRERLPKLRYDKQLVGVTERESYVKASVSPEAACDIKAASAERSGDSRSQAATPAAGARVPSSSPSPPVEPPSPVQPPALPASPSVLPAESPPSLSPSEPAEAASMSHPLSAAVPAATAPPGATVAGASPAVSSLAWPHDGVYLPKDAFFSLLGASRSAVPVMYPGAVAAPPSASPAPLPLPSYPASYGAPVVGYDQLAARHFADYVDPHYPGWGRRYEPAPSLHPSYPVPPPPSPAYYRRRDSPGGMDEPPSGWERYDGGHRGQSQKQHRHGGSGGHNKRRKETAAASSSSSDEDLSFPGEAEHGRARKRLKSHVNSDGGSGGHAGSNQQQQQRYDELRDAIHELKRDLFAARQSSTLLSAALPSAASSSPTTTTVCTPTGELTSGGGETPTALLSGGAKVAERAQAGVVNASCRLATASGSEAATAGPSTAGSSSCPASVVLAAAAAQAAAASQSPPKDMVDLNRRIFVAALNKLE
Test: HCMV antiviral assay
Protocol: Methods 21:293-298, 1990. […] After absorption of the lysate, the Hybriwix filters were hybridized overnight at 60° C.

In the case of `Nc1ncnc2c1ncn2CCOCP(=O)(O)O` [US10071110, Compound Adefovir], the EC50 is reported as 55 µM.
